Results: US10899738B2 (THE REGENTS OF THE UNIVERSITY OF MICHIGAN, priority 2016, dated 2021)
Like-named read-outs stand apart in the source and are kept apart here.

What was measured:
[1] = target: menin protein (Homo sapiens (Human), UniProt O00255); assay: biochemical; format: binding
Procedure, shortened: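 Test compounds displaced FAM-MM2 (2 nM) from 4 nM menin after 30 min equilibration at room temperature in PBS buffer containing bovine γ-globulin, 4% DMSO and Triton X-100. Binding was followed by fluorescence polarization. Competition curves were fitted by nonlinear regression to give IC50 and Ki.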

[2] = Cell growth inhibition, CellTiter-Glo Luminescent Cell Viability Assay; format: cell-based
Procedure, shortened: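 Cells seeded at 2,000/well with serially diluted compound and cultured 4 days at 37 °C, 5% CO2. Viability read by CellTiter-Glo luminescence; IC50 derived from dose-response.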

[3] = test system: MOLM-13 cells; assay: Mechanism of action studies, gene expression measured with qPCR in MOLM-13 cells; format: cell-based; settings: for HOX7 gene expression / HOX10 gene expression: dose dependent
Procedure: (§1) MOLM-13 or MV4-11 cells were seeded in a 6-well plate at a density of 500,000 cells/well in 2 ml of culture medium and treated with either Cpd. No. 210 or Cpd. No. 366 at the concentrations as indicated. About 4 days after the treatments, cells were harvested and the expression of each gene was measured with qPCR.
as §1, with “MOLM-13” for “MOLM-13 or MV4-11”, “366” for “210”, “238” for “366”, “66 hours” for “4 days”, “treatment,” for “treatments,”
as §1, with “500,000-800,000” for “500,000”, “366” for “210”, “215” for “366”, “40 hours” for “4 days”, “treatment,” for “treatments,”

[4] = test system: MV4-11 cells; assay: Mechanism of action studies, gene expression measured with qPCR in MV4-11 cells; format: cell-based
Procedure: as §1
as §1, with “500,000-800,000” for “500,000”, “366” for “210”, “215” for “366”, “40 hours” for “4 days”, “treatment,” for “treatments,”

[5] = FP competitive binding, menin protein 4 nM, FAM-MM2 probe 2 nM, read-out: Menin Binding Affinity IC50
[6] = MOLM-13, 96 h, read-out: Cell Growth Inhibition IC50 (μM) MOLM13
[7] = MV4-11, 96 h, read-out: Cell Growth Inhibition IC50 (μM) MV4, 11
[8] = MOLM-13, 96 h, MOLM13 cells, 4 days, CellTiter-Glo, read-out: Cell Growth Inhibition IC50 (μM) MOLM13
[9] = MV4-11, 96 h, MV4, 11 cells, 4 days, CellTiter-Glo, read-out: Cell Growth Inhibition IC50 (μM) MV4, 11
[10] = MOLM-13, 96 h, read-out: Cell Growth Inhibition IC50 (μM) MOLM13, MOLM13 cells, 4 days, CellTiter-Glo
[11] = MV4-11, 96 h, read-out: Cell Growth Inhibition IC50 (μM) MV4, 11, MV4, 11 cells, 4 days, CellTiter-Glo

menin protein, sequence (O00255 whole entry): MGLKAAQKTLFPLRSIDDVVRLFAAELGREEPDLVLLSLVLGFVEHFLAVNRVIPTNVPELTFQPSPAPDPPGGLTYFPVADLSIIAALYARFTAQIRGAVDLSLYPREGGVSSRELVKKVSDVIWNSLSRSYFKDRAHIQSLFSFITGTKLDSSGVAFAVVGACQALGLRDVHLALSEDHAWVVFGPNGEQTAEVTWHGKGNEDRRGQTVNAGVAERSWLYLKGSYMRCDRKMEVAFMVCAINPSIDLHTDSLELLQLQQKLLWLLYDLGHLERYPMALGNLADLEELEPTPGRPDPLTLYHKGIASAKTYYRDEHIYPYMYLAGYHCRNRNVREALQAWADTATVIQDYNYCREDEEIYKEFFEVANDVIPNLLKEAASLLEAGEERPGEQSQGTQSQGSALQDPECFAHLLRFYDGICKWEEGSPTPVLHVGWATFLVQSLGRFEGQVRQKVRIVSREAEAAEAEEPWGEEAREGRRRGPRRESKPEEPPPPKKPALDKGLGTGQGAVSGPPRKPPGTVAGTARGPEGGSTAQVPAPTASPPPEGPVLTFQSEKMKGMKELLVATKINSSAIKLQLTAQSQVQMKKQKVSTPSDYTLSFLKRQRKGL

| SMILES | IC50 [1, 5] | IC50 [2, 10] | IC50 [2, 11] | also measured |
| --- | --- | --- | --- | --- |
| CNC(=O)O[C@H]1CCC[C@@H]1C(Cn1ccnc1)(c1ccccc1)C1CCN(CC2CN(c3ccc(S(=O)(=O)c4cnn(C)c4)cc3)C2)CC1 (mixture of isomers) [compound 238, rac-(1S,2R)-2-(2-(1H-imidazol-1-yl)-1-(1-((1-(4-((1-methyl-1H-pyrazol-4-yl)sulfonyl)phenyl)azetidin-3-yl)methyl)piperidin-4-yl)-1-phenylethyl)cyclopentyl methylcarbamate] | 0.008 µM |  |  | IC50 [2, 6]: 0.16 µM; IC50 [2, 7]: 0.027 µM; ITGAM gene expression ([3]; 66 hours of treatment): not effect; MEIS1 gene expression ([3]; 66 hours of treatment): reduced; HOX7 gene expression ([3]; 66 hours of treatment): reduced; HOX10 gene expression ([3]; 66 hours of treatment): reduced |
| CNC(=O)O[C@H]1CCC[C@@H]1C1(C2CCN(CC3CN(c4ccc(S(=O)(=O)c5ccncc5)cc4)C3)CC2)CN(C)Cc2ccccc21 (mixture of isomers) [Cpd. No. 210, rac-(1S,2R)-2-(2-methyl-4-(1-((1-(4-(pyridin-4-ylsulfonyl)phenyl)azetidin-3-yl)methyl)piperidin-4-yl)-1,2,3,4-tetrahydroisoquinolin-4-yl)cyclopentyl methylcarbamate] |  |  |  | IC50 ([1]; Menin Binding Affinity IC50 (μM)): 0.004 µM; IC50 [2, 6]: 0.135 ± 0.093 µM; IC50 [2, 7]: 0.023 ± 0.016 µM; MEIS1 gene expression ([3]; 4 days of treatment): reduced; HOX7 gene expression ([3]; 4 days of treatment): reduced; HOX10 gene expression ([3]; 4 days of treatment): reduced; HOX7 gene expression ([4]; 4 days of treatment): not as robust as those of HOX10; MEIS1 gene expression ([4]; 4 days of treatment): reduced; MYB gene expression ([4]; 4 days of treatment): no effect; HOX10 gene expression ([4]; 4 days of treatment, dose dependent): reduced |
| O=S(=O)(c1ccncc1)c1ccc(N2CC(CN3CCC(C4(C5CCCC5)CNCc5ccccc54)CC3)C2)cc1 (stereo not drawn) [compound 51, 4-cyclopentyl-4-(1-((1-(4-(pyridin-4-ylsulfonyl)phenyl)azetidin-3-yl)methyl)piperidin-4-yl)-1,2,3,4-tetrahydroisoquinoline] | 0.008 µM |  |  | IC50 [2, 8]: 1.46 µM; IC50 [2, 9]: 0.67 µM |
| CC(=O)O[C@H]1CCC[C@@H]1C1(C2CCN(CC3CN(c4ccc(S(=O)(=O)C5CC5)cc4)C3)CC2)CN(C)Cc2ccccc21 (mixture of isomers) [compound 203, rac-(1S,2R)-2-(4-(1-((1-(4-(cyclopropylsulfonyl)phenyl)azetidin-3-yl)methyl)piperidin-4-yl)-2-methyl-1,2,3,4-tetrahydroisoquinolin-4-yl)cyclopentyl acetate] | 0.009 µM | 0.687 µM | 0.234 µM |  |
| CCN1Cc2ccccc2C(C2CCCC2)(C2CCN(CC3CN(c4ccc(S(=O)(=O)c5cnn(CC)c5)cc4)C3)CC2)C1 (stereo not drawn) [compound 103, 4-cyclopentyl-2-ethyl-4-(1-((1-(4-((1-ethyl-1H-pyrazol-4-yl)sulfonyl)phenyl)azetidin-3-yl)methyl)piperidin-4-yl)-1,2,3,4-tetrahydroisoquinoline] | 0.012 µM |  |  | IC50 [2, 8]: 2.26 µM; IC50 [2, 9]: 0.49 µM |
| CC(=O)O[C@H]1CCC[C@@H]1C1(C2CCN(CCCOc3ccc(C#N)cc3)CC2)CN(C)Cc2ccc(F)cc21 (mixture of isomers) [compound 314, rac-(1S,2R)-2-(4-(1-(3-(4-cyanophenoxy)propyl)piperidin-4-yl)-6-fluoro-2-methyl-1,2,3,4-tetrahydroisoquinolin-4-yl)cyclopentyl acetate] | 0.031 µM | > 10 µM | 2.97 µM |  |
| CC(=O)N[C@H]1CCC[C@@H]1C(C#N)(c1ccccc1)C1CCN(CC2CN(c3ccc(S(=O)(=O)c4ccncc4)cc3)C2)CC1 (mixture of isomers) [compound 263, rac-N-((1S,2R)-2-(cyano(phenyl)(1-((1-(4-(pyridin-4-ylsulfonyl)phenyl)azetidin-3-yl)methyl)piperidin-4-yl)methyl)cyclopentyl) acetamide] | 0.01 µM | 1.4 µM | 0.254 µM |  |
| CN1Cc2ccccc2C(C2CCN(CC3CN(c4ccc(S(=O)(=O)c5ccncc5)cc4)C3)CC2)([C@H]2CCC[C@@H]2OC(N)=O)C1 (mixture of isomers) [compound 219, rac-(1S,2R)-2-(2-methyl-4-(1-((1-(4-(pyridin-4-ylsulfonyl)phenyl)azetidin-3-yl)methyl)piperidin-4-yl)-1,2,3,4-tetrahydroisoquinolin-4-yl)cyclopentyl carbamate] | 0.003 µM | 0.236 µM | 0.074 ± 0.011 µM |  |
| CC(=O)O[C@H]1CCC[C@@H]1C(C#N)(c1ccccc1)C1CCN(CC2CN(c3ccc(S(=O)(=O)c4ccncc4)cc3)C2)CC1 (mixture of isomers) [compound 185, rac-(1S,2R)-2-(cyano(phenyl)(1-((1-(4-(pyridin-4-ylsulfonyl)phenyl)azetidin-3-yl)methyl)piperidin-4-yl)methyl)cyclopentyl acetate] | 0.007 µM | 0.783 ± 0.474 µM | 0.624 ± 0.165 µM |  |
| CCN1Cc2ccccc2C(C2CCCC2)(C2CCN(CC3CN(c4ccc(S(=O)(=O)c5ccccc5)cc4)C3)CC2)C1 (stereo not drawn) [compound 147, 4-cyclopentyl-2-ethyl-4-(1-((1-(4-(phenylsulfonyl)phenyl)azetidin-3-yl)methyl)piperidin-4-yl)-1,2,3,4-tetrahydroisoquinoline] | 0.009 µM |  |  | IC50 [2, 8]: 1.6 ± 0.8 µM; IC50 [2, 9]: 0.956 ± 0.727 µM |
| CNC(=O)O[C@H]1CCC[C@@H]1C(C#N)(c1ccccc1)C1CCN(CC2CN(c3ccc(S(=O)(=O)c4ccncc4)cc3)C2)CC1 (mixture of isomers) [Cpd. No. 215, rac-(1S,2R)-2-(cyano(phenyl)(1-((1-(4-(pyridin-4-ylsulfonyl)phenyl)azetidin-3-yl)methyl)piperidin-4-yl)methyl)cyclopentyl methylcarbamate] | 0.006 µM | 0.415 ± 0.208 µM | 0.173 ± 0.048 µM | HOX7 gene expression ([4]; 40 hours of treatment): Neither Cpd. No. 366 nor Cpd. No. 215 showed an effect |
| CN(C)C(=O)N[C@H]1CCC[C@@H]1C(C#N)(c1ccccc1)C1CCN(CC2CN(c3ccc(S(=O)(=O)c4ccncc4)cc3)C2)CC1 (mixture of isomers) [compound 275, rac-3-((1S,2R)-2-(cyano(phenyl)(1-((1-(4-(pyridin-4-ylsulfonyl)phenyl)azetidin-3-yl)methyl)piperidin-4-yl)methyl)cyclopentyl)-1,1-dimethylurea] | 0.012 µM | 0.41 µM | 0.45 µM |  |
| CNC(=O)O[C@H]1CCC[C@@H]1C(C#N)(c1ccccc1)C1CCN(CCCOc2ccc(C#N)cc2)CC1 (mixture of isomers) [compound 232, rac-(1S,2R)-2-(cyano(1-(3-(4-cyanophenoxy)propyl)piperidin-4-yl)(phenyl)methyl)cyclopentyl methylcarbamate] | 0.02 µM | 0.94 µM | 0.3 µM |  |
| CNC(=O)O[C@H]1CCC[C@@H]1C(Cn1ccnc1)(c1cccc(F)c1)C1CCN(CC2CN(c3ccc(C#N)cc3)C2)CC1 (mixture of isomers) [compound 390, rac-(1S,2R)-2-(1-(1-((1-(4-cyanophenyl)azetidin-3-yl)methyl)piperidin-4-yl)-1-(3-fluorophenyl)-2-(1H-imidazol-1-yl)ethyl)cyclopentyl methylcarbamate] | 0.005 µM | 0.082 µM | 0.021 µM |  |
